Results on 20 compounds are retold here after US8598383B2, “Pharmaceutical composition for treating or preventing degenerative and inflammatory diseases” (Neurotech Pharmaceuticals Co., Ltd., priority 2006, dated 2013).

Series [1] can be described thus: Single-dose toxicity test. Format: in vivo. The procedure:
FIG. 32 is results of single dose toxicity testing of some 2-hydroxybenzoic acid derivatives according to the present invention.
Single-dose toxicities of the 2-hydroxybenzoic acid derivatives were evaluated.

Series [2] deals with TNF-alpha gene expression in BV2 cell line. Nature of the series: Suppressing effect on gene expression (RT-PCR), TNF-alpha. Format: cell-based. The note with it: gene expression vs LPS control, BV2, 24 hours; for inhibition at 100 µM: Mus musculus, BV-2, 24 h. The procedure: (§1) Effects of the 2-hydroxybenzoic acid derivatives on iNOS gene expression in BV2 cell line were evaluated. 100 mm dish was inoculated with 1×10^6 cells of BV2 cell line, and treated with both LPS, inflammation-inducing material, and 1˜100 uM of the 2-hydroxybenzoic acid derivative of the present invention, together, in regular concentration interval. After 24 hours of incubation, RNA was extracted. Extracted RNA was used in reverse transcription and polymerase chain reaction, and expression patterns of TNF-alpha, IL-1beta and iNOS were compared.

For series [3], the system named is IL-1beta gene expression in BV2 cell line. Nature of the series: Suppressing effect on gene expression (RT-PCR), IL-1beta. Format: cell-based. The note with it: Mus musculus, BV-2, 24 h, gene expression vs LPS control, BV2, 24 hours. The procedure: as §1
The subject of series [4] is iNOS gene expression in BV2 cell line. Nature of the series: Suppressing effect on gene expression (RT-PCR), iNOS. It counts as cell-based. The note with it: Mus musculus, BV-2, 24 h, gene expression vs LPS control, BV2, 24 hours. The procedure:
as §1

The test system of series [5] is BV2 microglia cell line. Nature of the series: Suppressing effect on production of NO (LPS, Griess reagent). It counts as cell-based. The note with it: Mus musculus, BV-2, LPS-treated BV2 microglia, 24 hours incubation. The method, then:
Inhibiting effect of the 2-hydroxybenzoic acid derivative according to the present invention on NO, inflammatory factor intervening inflammation reaction was evaluated. BV2 microglia cell line was treated with lipopolysaccharide (LPS), a inflammation-inducing material of bacteria toxin, with inclusion of 10 uM, 30 uM or 100 uM of the present compound. After 24 hours of incubation, 50 ul of culture medium was collected in 96-well plate. Then, 50 ul of Griess reagent was added and incubated for 10 minutes at room temperature. The absorbance was evaluated by ELISA reader at 540 nm.

In series [6] the test system is collagen-induced arthritis. Nature of the series: Collagen-induced arthritis model (arthritic index). Format: in vivo, mouse. The method, then:
FIG. 15 is results showing efficacy through arthritis animal model induced by collagen. 25 mg/kg of compound 2, 3 or 18, or methotrexate (control, MTX, 1 mg/kg/week) was intraperitoneally injected after administration of collagen.
FIG. 16 is results showing efficacy of compounds 6 and 11 through arthritis animal model induced by collagen. Collagen was intradermally injected two times with 2 week-interval. One week later, compound 6, compound 11 and methotrexate (control) were intraperitoneally injected. Then, the animals were observed everyday for 2-3 weeks, and results was evaluated by arthritis index.
To evaluate the efficacy of the 2-hydroxybenzoic acid derivative, collagen-induced arthritis model (rheumarthritis animal model) was used. Bovine type II collagen was mixed with complete Freund's adjuvant to make an emulsion, and the emulsion was intradermally injected into the origin site of 8˜10 week-old DBA/1LacJ mouse tail. Intradermal boosting was performed by the same method 2 weeks later. 25 mg/kg/day of compounds 2, 3 and 18, 1 mg/kg/week of methotrexate (comparative example) or 10% vehicle (control) were intraperitoneally injected one week after the second intradermal injection of collagen (FIG. 15). Pictures of foot edema of normal rat (sham), collagen-administered rat (collagen) and compound 18-administered rat (compound 18, 25 mg/kg/day injection) were shown in FIG. 14.
In addition, 50 mg/kg/day of compounds 6 and 11, and 5 mg/kg/2 days of methotrexate (comparative example) were intraperitoneally injected. Phosphate buffered saline was injected as control (FIG. 16). For 2˜3 weeks, the degree of arthritis was observed everyday, and the result was evaluated according to the below arthritic index using edema.
4 paws were evaluated as from 0 to 4 point, Total points: 16

In series [7] the test system is MPO (myeloperoxidase). The note with it: cited from earlier work; for activity of MPO: in vivo.
The subject of series [8] is IL-6 production in BV2 cell line. Nature of the series: Suppressing effect on production of cytokine (ELISA), IL-6. Format: cell-based. The note with it: LPS + 100 uM of sample, 24 hours; for IL-6 % Inhibition: level in medium; for inhibition at 100 µM: Mus musculus, BV-2, level in medium. The method, then: (§2) Effects of the 2-hydroxybenzoic acid derivatives on production of cytokine in BV2 cell line were evaluated. 24-well plate was inoculated with 1×10^6 cells of BV2 cell line, and treated with both LPS, inflammation-inducing material, and 100 uM of sample (the 2-hydroxybenzoic acid derivative or comparative drug), together. After 24 hours of incubation, culture medium was collected. The levels of cytokines, TNF-α and IL-6, in the medium were evaluated by ELISA method.

The subject of series [9] is TNF-α production in BV2 cell line. As to the kind of experiment: Suppressing effect on production of cytokine (ELISA), TNF-α. The note with it: LPS + 100 uM of sample, 24 hours; for TNF-α % Inhibition: level in medium, 100 µM; for inhibition at 100 µM: Mus musculus, BV-2, level in medium. Format: cell-based. The method, then:
as §2
On the technique in general: An ELISA detects its analyte on a solid surface through an enzyme-linked reagent.

Series [10] has as its system DSS-induced colitis. As to the kind of experiment: 5% dextran sulfate sodium (DSS) inflammatory intestinal disease model. It counts as in vivo, mouse. The note with it: vs DSS only; compound 18 25 mg/kg oral. The method, then: FIG. 17 is results showing efficacy through 5% dextran sulfate sodium (DSS) model, inflammatory intestinal disease animal model. After treatment of DSS, 10, 25 or 50 mg/kg of compound 18 suspended in 10% vehicle was orally administered. Sham means colon of normal mouse, DSS means colon mouse treated with 5% DSS. The others are pictures of colon of mice administered with compound 18 at indicated dose.
FIG. 20 is an efficacy test result of compound 18 using DSS. After treatment of DSS, compound 18 (25 mg/kg) suspended in 10% vehicle was orally administered. After that, bloody excrement by colon injury, diarrhea and the degree of dirtiness were evaluated as feces score.
5% dextran sulfate sodium (DSS) model was used as inflammatory intestinal disease animal model. 5% DSS mixed with water was orally administered. 5% DSS model causes damage to epithelial cell, and ulcer in left colon and the decrease of colon length are mainly observed in the model. This model is simple and reproductive, and can regulate the degree of inflammation according to dose. Therefore, this model is often used for evaluating drug candidates.
DSS is continuously administered in water bottle. The 2-hydroxybenzoic acid derivative was suspended in 10% vehicle, and orally administered.

Bounds are passed on as bounds.

A word on the LD50: it is the dose expected to kill half of the subjects tested. A lower LD50 goes with a more toxic substance. Compound `O=C(O)c1cc(NCCc2ccccc2Cl)ccc1O` [compound 19, 5-[2-(2-chloro-phenyl)-ethylamino]-2-hydroxy-benzoic acid] yielded an LD50 in series [1] (mouse, in vivo, single dose) of 500 to 1000 mg/kg.

One may read the inhibition as the percentage by which the read-out fell short of the control. For `O=C(O)c1cc(NCCCc2ccc(F)cc2)ccc1O` [compound 15, 5-[3-(4-fluoro-phenyl)-propylamino]-2-hydroxy-benzoic acid], the inhibition at 100 µM in [2] was determined as 37.4%; in series [3] it was 35.1%.

On to `O=C(O)c1cc(NCCc2ccccc2[N+](=O)[O-])ccc1O` [compound 5, 2-hydroxy-5-[2-(2-nitro-phenyl)-ethylamino]-benzoic acid], for which the inhibition at 100 µM in series [2] amounted to 38.7%; in [3] it was 67.7%.

Turning to `Cc1ccccc1CCNc1ccc(O)c(C(=O)O)c1` [compound 12, 2-hydroxy-5-(2-o-tolyl-ethylamino)-benzoic acid], the inhibition at 100 µM in [3] worked out at 41.8%; in [4], 43.7%.

By IC50 is commonly meant the point on the concentration scale where inhibition reaches its midpoint. Higher therefore signals a need for much substance. In the case of `COc1ccc(CCNc2ccc(O)c(C(=O)O)c2)cc1` [compound 11, 2-hydroxy-5-[2-(4-methoxy-phenyl)-ethylamino]-benzoic acid], in [5], the half-maximal inhibitory concentration (IC50) was 132 µM. In addition, the arthritic index entry in [6] (50 mg/kg/day intraperitoneal) was “apparent reducing effect”.

Consider `CS(=O)(=O)Nc1ccc([N+](=O)[O-])cc1Oc1ccccc1` [nimesulide], for which the “protective effect in intestinal damage animal models” value in series [7] (acetic acid-induced IBD and LTB4-induced IBD) is reported as “showed protective effect”. For the same compound, the “activity of MPO” value in [7] is reported as “excessively suppressed the activity of MPO”.

For `CC(c1cc2ccccc2s1)N(O)C(N)=O` (stereo not shown) [Zileuton], the “activity of MPO” value in series [7] is on record as “decreased the activity of MPO”.

In series [5], `O=C(O)c1cc(NCCc2ccccc2)ccc1O` [compound 1, 2-hydroxy-5-phenethylamino-benzoic acid] showed an IC50 of 183 µM.

For `O=C(O)c1cc(NCCc2ccc(Cl)cc2)ccc1O` [compound 6, 5-[2-(4-chloro-phenyl)-ethylamino]-2-hydroxy-benzoic acid], in series [6] (50 mg/kg/day intraperitoneal), the arthritic index entry is listed as “apparent reducing effect”.

As to `CC(C)Cc1ccc(C(C)C(=O)O)cc1` (stereo not shown) [Ibuprofen, reference compound], the “IL-6 % Inhibition” value in series [8] (100 µM) is given as “No effect”; in [8] (listed as ibuprofen, 100 µM), “little reduced”. Besides, the “TNF-α % Inhibition” value in series [9] is reported as “No effect”; in series [9] (listed as ibuprofen), “did not showing reducing effect”.

Turning to `O=C(O)c1cc(NCCCc2ccc(C(F)(F)F)cc2)ccc1O` [compound 14, 2-hydroxy-5-[3-(4-trifluoromethyl-phenyl)-propylamino]-benzoic acid], the figures for the inhibition at 100 µM in [2], in series [9] and in series [4] were 38.9%, 62.6% and 44.3%, respectively. Moreover, the “single-dose toxicity, finding in words” value in series [1] (single dose) is reported as “high toxicity or dose-independent toxicity”.

In turn, `Cc1ccc(CCCNc2ccc(O)c(C(=O)O)c2)cc1` [compound 17, 2-hydroxy-5-(3-p-tolyl-propylamino)-benzoic acid] displayed an inhibition at 100 µM in series [2] of 20.8%.

Consider `O=C(O)c1cc(NCCc2cccc(C(F)(F)F)c2)ccc1O` [compound 3, 2-hydroxy-5-[2-(3-trifluoromethyl-phenyl)-ethylamino]-benzoic acid], for which the inhibition at 100 µM turned out to be 33.1% in series [8] and 31.9% in series [9]. The “single-dose toxicity, finding in words” value in [1] (single dose) is “high toxicity or dose-independent toxicity”. For the same compound, the arthritic index entry in [6] (25 mg/kg/day intraperitoneal) is recorded as “apparent reducing effect”.

In the case of `O=C(O)c1cc(/N=N/c2ccc(S(=O)(=O)Nc3ccccn3)cc2)ccc1O` [sulfasalazine, reference compound], the “feces score (bloody excrement, diarrhea, dirtiness)” value in [10] is reported as “significantly decreased feces score”. In addition, the “activity of MPO” value in series [7] is “decreased the activity of MPO”.

Turning to `O=C(O)c1cc(NCCc2ccc(C(F)(F)F)cc2F)ccc1O` [compound 10, 5-[2-(2-fluoro-4-trifluoromethyl-phenyl)-ethylamino]-2-hydroxy-benzoic acid], the IC50 in [5] was 20.7 µM.

For the compound `O=C(O)c1cc(NCCc2ccc(F)cc2C(F)(F)F)ccc1O` [compound 9, 5-[2-(4-fluoro-2-trifluoromethyl-phenyl)-ethylamino]-2-hydroxy-benzoic acid], the results for the inhibition at 100 µM in series [2] and in series [4] were 61.7% and 17.8%, respectively. Moreover, the “% Inhibition (in 100 uM) TNF-alpha” value in [2] is recorded as 61.7%. In addition, inhibition in series [5] was half-maximal at 1.79 µM (IC50).

Consider `O=C(O)c1cc(NCCCc2ccccc2)ccc1O` [compound 13, 2-hydroxy-5-(3-phenyl-propylamino)-benzoic acid], for which the inhibition at 100 µM in [2] was determined as 43%; in series [4], 15.5%.

On to `O=C(O)c1cc(NCCc2ccc(Cl)c(Cl)c2)ccc1O` [compound 8, 5-[2-(3,4-dichloro-phenyl)-ethylamino]-2-hydroxy-benzoic acid], for which the inhibition at 100 µM in series [2] is 77%; in series [3] it was more than 50%. In addition, the “% Inhibition (in 100 uM) TNF-alpha” value in [2] is 77.1%.

As for `O=C(O)c1cc(NCCc2cc(C(F)(F)F)cc(C(F)(F)F)c2)ccc1O` [compound 4, 5-[2-(3,5-bis-trifluoromethyl-phenyl)-ethylamino]-2-hydroxy-benzoic acid], in series [1] (mouse, in vivo), the “single-dose toxicity, finding in words” value is recorded as “caused sudden death of mouse at 3 g/kg”. The inhibition at 100 µM in series [9] was 18.7%. Further, in series [5], 6.25 µM corresponded to half-maximal inhibition (IC50).

Take `CC(=O)Oc1ccccc1C(=O)O` [Aspirin, acetylsalicylic acid, reference compound]: in series [8], the inhibition at 100 µM is 22.2% and the “IL-6 % Inhibition” value is reported as “little reduced”. Also, the “TNF-α % Inhibition” value in [9] is “No effect”. In series [9] (listed as aspirin), the “TNF-α % Inhibition” value is given as “did not showing reducing effect”.
